Test results as given in patent publication US5059590A, “Imidazole derivatives, process for production thereof, and use thereof” (Yamasa Shoyu Kabushiki Kaisha, priority 1988, dated 1991).
Converted amounts (≈) assume the structure as drawn.

Key:
Format in all cases: cell-based
[1] = tested on: L1210 mouse leukemia cells; assay: In vitro anti-proliferative activity against mouse tumor cell lines, Test Method 1 (L1210); conditions: L1210, 48 hours, 37° C.
Protocol: (§1) In vitro anti-proliferative activity against mouse tumor cell lines
1. L1210 mouse leukemia cells are cultivated in RPMI1640 medium supplemented with 10% fetal bovine serum, and the resultant cells are diluted with the same medium in the logarithmic growth phase to a concentration of 1.6×10^5 cells/ml.
2. To test tubes each containing 0.9 ml of the above obtained diluted cell suspension is added 0.1 ml each of test solutions serially diluted with a culture medium or phosphate-buffered saline (PBS), and the mixture is incubated in a 2% CO2 -incubator at 37° C. for 48 hours.
3. After incubation, the number of the cells in each tube is counted with a Coulter counter (Model ZB, Coulter Electronics), and the growth inhibition percent (%) of the cells at each concentration of a test compound is calculated from the following equation: [formula] Tx: Number of the cells in a test tube containing a test compound as counted upon completion of the incubation (cells/ml)
Cx: Number of the cells in a test tube containing no test compound as counted upon completion of the incubation (cells/ml)
Co: Number of the cells in a test tube containing no test compound as counted at the initiation of the incubation (cells/ml)
4. The concentration of the test compound, which causes cell growth inhibition by 50%, is determined by the graph showing the relationship between the growth inhibition percent and the concentration of the test compound, and is defined as 50% inhibitory concentration (IC50).

[2] = tested on: Mouse lymphoma cell line P388; assay: In vitro anti-proliferative activity against mouse tumor cell lines, Test Method 2 (P388); conditions: P388, 48 hours, 37° C.
Protocol: as §1
(§2) 1. Mouse lymphoma cell line P388 or mouse sarcoma 180 is suspended in RPMI1640 medium supplemented with 10% fetal bovine serum and 2 μM 2-hydroxyethyl disulfide to a concentration of 10^5 cells/ml. Test compounds are serially diluted with the same medium.
(§3) 2. 0.5 ml of the cell suspension thus obtained is admixed with 0.5 ml of the medium or the test compound solution, and the mixture is incubated in a 5% CO2 -incubator at 37° C. for 48 hours. The incubation is carried out in glass culture tubes.
(§4) 3. At the end of incubation, the number of the cells in each tube is counted with a Coulter counter (Model ZB, Coulter Electronics), and the growth inhibition percent (%) is calculated from the same equation as in Test Method 1.
(§5) 4. The IC50 value is obtained as in Test Method I.

[3] = tested on: mouse sarcoma 180; assay: In vitro anti-proliferative activity against mouse tumor cell lines, Test Method 2 (sarcoma 180); conditions: Sarcoma 180, 48 hours, 37° C.
Protocol: as §1, §2, §3, §4, §5

Question: `NC(=O)c1ncn([C@@H]2O[C@H](CO)[C@@H](O)[C@H]2O)c1C#CCO` [R = [drawing 28]; A = CONH2; R^1 = CH2 OH, 5-(3-Hydroxy-1-propyn-1-yl)-1-β-D-ribofuranosylimidazole-4-carboxamide] was tested. Which IC50 [1] did it give?
Answer: The IC50 was 0.7 µg/mL (≈ 2.35 µM).

Question: For `C#Cc1c(C#N)ncn1[C@@H]1O[C@H](CO)[C@@H](O)[C@H]1O` [5-ethynyl-1-β-D-ribofuranosylimidazole-4-carbonitrile], which IC50 [1] is on record?
Answer: Its IC50 is 1.9 µg/mL (≈ 7.62 µM).

Question: What about the IC50 [2] of the same compound?
Answer: Its IC50 is 0.93 µg/mL (≈ 3.73 µM).

Question: What about the IC50 [3] of the same compound?
Answer: The IC50 was 0.8 µg/mL (≈ 3.21 µM).

Question: For `C#Cc1[nH]cnc1C#N` [5-ethynylimidazole-4-carbonitrile], which IC50 [1] is on record?
Answer: Its IC50 is 2.9 µg/mL (≈ 24.8 µM).

Question: What about the IC50 [2] of the same compound?
Answer: The IC50 was 14.1 µg/mL (≈ 120 µM).

Question: What about the IC50 [3] of the same compound?
Answer: The IC50 was 9.92 µg/mL (≈ 84.7 µM).

Question: With `NC(=O)c1ncn([C@@H]2O[C@H](CO)[C@@H](O)[C@H]2O)c1C#CCCO` [5-(4-hydroxy-1butyn-1-yl)-1β-D-ribofuranosylimidazole-4-carboxamide] as the compound, how does the IC50 [1] read?
Answer: Its IC50 is 1.28 µg/mL (≈ 4.11 µM).

Question: Which IC50 [1] does the source give for `C#Cc1[nH]cnc1C(N)=O` [5-ethynylimidazole-4-carboxamide] here?
Answer: Its IC50 is 4 µg/mL (≈ 29.6 µM).

Question: And the IC50 [2]?
Answer: The IC50 was 4.37 µg/mL (≈ 32.3 µM).

Question: And the IC50 [3]?
Answer: Its IC50 is 1.39 µg/mL (≈ 10.3 µM).

Question: With `N#Cc1ncn([C@@H]2O[C@H](CO)[C@@H](O)[C@H]2O)c1C#CCCO` [R = [drawing 28]; A = CN; R^1 = CH2 CH2 OH, 5-(4-hydroxy-1-butyn-1yl)-1-β-D-ribofuranosylimidazole-4-carbonitrile] as the compound, how does the IC50 [1] read?
Answer: Its IC50 is 3.3 µg/mL (≈ 11.3 µM).

Question: Which IC50 [1] does the source give for `CCCC#Cc1c(C(N)=O)ncn1[C@@H]1O[C@H](CO)[C@@H](O)[C@H]1O` [R = [drawing 28]; A = CONH2; R^1 = C3, 5-(1-pentyn-1-yl)-1-β-D-ribofuranosylimidazole-4-carboxamide] here?
Answer: The IC50 was 2.92 µg/mL (≈ 9.44 µM).

Question: How did the IC50 [1] turn out when `N#Cc1ncn([C@@H]2O[C@H](CO)[C@@H](O)[C@H]2O)c1C#CCO` [R = [drawing 28]; A = CN; R^1 = CH2 OH, 5-(3-Hydroxy-1-propyn-1-yl)-1-β-D-ribofuranosylimidazole-4-carbonitrile] was run?
Answer: Its IC50 is 4.1 µg/mL (≈ 14.7 µM).
